Source: US10676508B2, “DEPDC1-derived peptide and vaccine containing same” (OncoTherapy Science, Inc., priority 2015, dated 2020)

Tested on: peptide-pulsed C1R-A01 cells
Assay: In vitro CTL induction, IFN-gamma ELISPOT assay (HLA-A*0101)
Assay type: cell-based, human
Details: CTLs from HLA-A*0101-positive donors, DCs pulsed with 20 micro-g/ml peptide, day 21, versus unpulsed C1R-A01
Excerpt: Monocyte-derived dendritic cells (DCs) were used as the antigen-presenting cell to induce a cytotoxic T lymphocyte (CTL) response against peptides presented on human leukocyte antigens (HLAs). As described in the other sections, DCs were generated in vitro (Nakahara S et al., Cancer Res 2003, 63(14): 4112-8). Specifically, peripheral-blood mononuclear cells isolated from healthy volunteers (HLA-A*0101-positive) with the Ficoll-Paque plus solution (Pharmacia) were separated by attaching to plastic tissue culture dishes (Becton Dickinson) and concentrated as a monocyte fraction. The monocyte-concentrated population was cultured in the presence of 1000 IU/ml granulocyte macrophage colony-stimulating factor (R&D System) and 1000 IU/ml interleukin (IL)-4 (R&D System) in an AIM-V medium (Invitrogen) containing 2% heat-inactivated autologous serum (AS). After seven days of culturing, the cytokine-induced DCs were pulsed with 20 micro-g/ml each of the synthesized peptides in an AIM-V medium at 37 degrees C. for three hours in the presence of 3 micro-g/ml beta 2-microglobulin. Next, these peptide-pulsed DCs were inactivated by X-ray irradiation (20 Gy), and mixed in a 1:20 ratio with autologous CD8^+ T cells obtained by positive selection using the CD8 Positive Isolation Kit (Dynal). These culture products were seeded in a 48-well plate (Corning). Each well was made to contain 1.5×10^4 peptide-pulsed DCs, 3×10^5 CD8^+ T cells and 10 ng/ml IL-7 (R&D System) in 0.5 ml of the AIM-V/2% AS medium. Three days later, these culture products were added with a final concentration of 20 IU/ml IL-2 (CHIRON). On day 7 and day 14, T cells were further stimulated with peptide-pulsed autologous DCs. The DCs were prepared every time by the same method as above. On day 21, after the third peptide stimulation, CTL activities were examined against the peptide-pulsed C1R-A01 cells (Tanaka H et al., Br J Cancer 2001, 84(1): 94-9; Umano Y et al., Br J Cancer 2001, 84(8): 1052-7; Uchida N et al., Clin Cancer Res 2004, 10(24): 8577-86; Suda T et al., Cancer Sci 2006, 97(5): 411-9; Watanabe T et al., Cancer Sci 2005, 96(8): 498-506).
To examine specific CTL activity, an IFN-gamma ELISPOT assay and an IFN-gamma ELISA were performed. Specifically, peptide-pulsed C1R-A01 cells (1×10^4 cells/well) were prepared as the stimulator cell. The induced CTLs, i.e., CTL lines and CTL clones, were used as the responder cell. The IFN-gamma ELISPOT assay and IFN-gamma ELISA were performed according to the manufacturer's manual.

Sequence	peptide-specific CTL activity (IFN-gamma production, ELISPOT)
FLESKPKQEF (a peptide derived from DEPDC1) [SEQ ID NO: 102]	potent IFN-gamma production
TTESEAALF (a peptide derived from DEPDC1) [SEQ ID NO: 83]	potent IFN-gamma production
PTTESEAALF (a peptide derived from DEPDC1) [SEQ ID NO: 94]	specific IFN-gamma production was not observed
LFAPLPTYSY (a peptide derived from DEPDC1) [SEQ ID NO: 96]	potent IFN-gamma production
LSENSLLPA (a peptide derived from DEPDC1) [SEQ ID NO: 84]	potent IFN-gamma production
TAGEAVDWLY (a peptide derived from DEPDC1) [SEQ ID NO: 92]	potent IFN-gamma production
SNDMNNPTY (a peptide derived from DEPDC1) [SEQ ID NO: 86]	potent IFN-gamma production
ESQGVPPGPY (a peptide derived from DEPDC1) [SEQ ID NO: 91]	potent IFN-gamma production
VSDRSSGIH (a peptide derived from DEPDC1) [SEQ ID NO: 89]	potent IFN-gamma production
AGEAVDWLY (a peptide derived from DEPDC1) [SEQ ID NO: 82]	potent IFN-gamma production
LTFEYYELF (a peptide derived from DEPDC1) [SEQ ID NO: 88]	potent IFN-gamma production
QEDVEEVWRY (a peptide derived from DEPDC1) [SEQ ID NO: 106]	potent IFN-gamma production
QTAVEKHLDY (a peptide derived from DEPDC1) [SEQ ID NO: 90]	potent IFN-gamma production
RSSTRRNSY (a peptide derived from DEPDC1) [SEQ ID NO: 21]	potent IFN-gamma production
HSEENIQKPF (a peptide derived from DEPDC1) [SEQ ID NO: 101]	potent IFN-gamma production
EVWRYVILIY (a peptide derived from DEPDC1) [SEQ ID NO: 99]	potent IFN-gamma production
NVDDNNQLF (a peptide derived from DEPDC1) [SEQ ID NO: 85]	potent IFN-gamma production
RSNDMNNPTY (a peptide derived from DEPDC1) [SEQ ID NO: 58]	potent IFN-gamma production
HQEILQVPSY (a peptide derived from DEPDC1) [SEQ ID NO: 103]	potent IFN-gamma production
STECLLLSLL (a peptide derived from DEPDC1) [SEQ ID NO: 104]	potent IFN-gamma production
FQKEYPLIY (a peptide derived from DEPDC1) [SEQ ID NO: 87]	potent IFN-gamma production
KSDDLPHWV (a peptide derived from DEPDC1) [SEQ ID NO: 81]	potent IFN-gamma production
LPEPLLTFEY (a peptide derived from DEPDC1) [SEQ ID NO: 107]	potent IFN-gamma production
